# Measurements published in publication PMC8019204 (Cancer Science, 2021).
# Several values for one entry are separate records, joined by “and”; a condition that tells them apart may be missing. Identical values can stand only once. Like-named read-outs stand apart in the source and are kept apart here.
# Assays:
# GEOMETRY mono-1: safety = format: in vivo, human
# [1] = single agent; Japanese patients with advanced solid tumors; cited from earlier work
# MET‐amplified NSCLC [2] = test system: MET‐amplified NSCLC
# MET‐amplified NSCLC [3] = settings: global population, cited from earlier work
# [4] = GEOMETRY mono-1: plasma pharmacokinetics of capmatinib; format: in vivo, human; settings: for AUC(0-t): AUC0–12, geometric mean (CV%)
# [5] = 1L group, the one patient with PR
# [6] = 2/3L, cohort 1a GCN ≥ 10 (n = 11)
# [7] = 2/3L, cohort 1b GCN ≥ 6 to <10 (n = 1)
# [8] = 2/3L, cohort 2 GCN ≥ 4 to <6 (n = 10)
structure (smiles),measurement,setting,value
"CNC(=O)c1ccc(-c2cnc3ncc(Cc4ccc5ncccc5c4)n3n2)cc1F [capmatinib, Capmatinib]",Treatment‐related AE: Cellulitis,"GEOMETRY mono-1: safety; grade 3/4, n = 45",1 (2.2) n (%) of patients
same,Treatment‐related AE: Constipation,"GEOMETRY mono-1: safety; grade 3/4, n = 45",1 (2.2) n (%) of patients
same,Treatment‐related AE: Decreased appetite,"GEOMETRY mono-1: safety; grade 3/4, n = 45",2 (4.4) n (%) of patients
same,Treatment‐related AE: Diarrhoea,"GEOMETRY mono-1: safety; grade 3/4, n = 45",1 (2.2) n (%) of patients
same,Treatment‐related AE: Dry skin,"GEOMETRY mono-1: safety; grade 3/4, n = 45",0 n (%) of patients
same,Treatment‐related AE: Fatigue,"GEOMETRY mono-1: safety; grade 3/4, n = 45",0 n (%) of patients
same,Treatment‐related AE: Headache,"GEOMETRY mono-1: safety; grade 3/4, n = 45",0 n (%) of patients
same,Treatment‐related AE: Hypoalbuminaemia,"GEOMETRY mono-1: safety; grade 3/4, n = 45",0 n (%) of patients
same,Treatment‐related AE: Malaise,"GEOMETRY mono-1: safety; grade 3/4, n = 45",1 (2.2) n (%) of patients
same,Treatment‐related AE: Nausea,"GEOMETRY mono-1: safety; grade 3/4, n = 45",0 n (%) of patients
same,Treatment‐related AE: Oedema peripheral,"GEOMETRY mono-1: safety; grade 3/4, n = 45",3 (6.7) n (%) of patients
same,Treatment‐related AE: Pyrexia,"GEOMETRY mono-1: safety; grade 3/4, n = 45",0 n (%) of patients
same,Treatment‐related AE: Rash,"GEOMETRY mono-1: safety; grade 3/4, n = 45",0 n (%) of patients
same,Treatment‐related AE: Vomiting,"GEOMETRY mono-1: safety; grade 3/4, n = 45",1 (2.2) n (%) of patients
same,Any treatment‐related AE,"GEOMETRY mono-1: safety; grade 3/4, n = 45, Table 5",25 (55.6) n (%) of patients
same,Patients who experienced at least one AE,"GEOMETRY mono-1: safety; of 45 patients, cutoff September 18, 2019",45 patients
same,"Discontinuation from treatment phase, reason: Adverse event","GEOMETRY mono-1: safety; overall Japanese cohort (n = 45), cutoff April 15, 2019",8 (17.8) n (%) of patients
same,Best overall response: CR,"METΔex14‐mutated NSCLC; 1L group (cohort 5b, n = 2)",0 n (%) of patients
same,Best overall response: Non‐CR/non‐PD,"METΔex14‐mutated NSCLC; 1L group (cohort 5b, n = 2)",0 n (%) of patients
same,Best overall response: PD,"METΔex14‐mutated NSCLC; 1L group (cohort 5b, n = 2)",0 n (%) of patients
same,Best overall response: PR,"METΔex14‐mutated NSCLC; 1L group (cohort 5b, n = 2)",1 (50.0) n (%) of patients
same,Best overall response: SD,"METΔex14‐mutated NSCLC; 1L group (cohort 5b, n = 2)",1 (50.0) n (%) of patients
same,Best overall response: Unknown,"METΔex14‐mutated NSCLC; 1L group (cohort 5b, n = 2)",0 n (%) of patients
same,DOR,METΔex14‐mutated NSCLC; [5],4.24 months
same,Decrease in lesion size,METΔex14‐mutated NSCLC; [5],76.5%
same,Time to confirmed PD after starting capmatinib,METΔex14‐mutated NSCLC; [5],168 days and 5.5 months
same,DCR (BIRC),METΔex14‐mutated NSCLC; 2/3L group (cohort 4),81.8%
same,Median PFS (BIRC),METΔex14‐mutated NSCLC; 2/3L group (cohort 4),4.70 months
same,ORR (BIRC),METΔex14‐mutated NSCLC; 2/3L group (cohort 4),36.4%
same,Best overall response: CR,"METΔex14‐mutated NSCLC; 2/3L group (cohort 4, n = 11)",0 n (%) of patients
same,Best overall response: Non‐CR/non‐PD,"METΔex14‐mutated NSCLC; 2/3L group (cohort 4, n = 11)",0 n (%) of patients
same,Best overall response: PD,"METΔex14‐mutated NSCLC; 2/3L group (cohort 4, n = 11)",1 (9.1) n (%) of patients
same,Best overall response: PR,"METΔex14‐mutated NSCLC; 2/3L group (cohort 4, n = 11)",4 (36.4) n (%) of patients
same,Best overall response: SD,"METΔex14‐mutated NSCLC; 2/3L group (cohort 4, n = 11)",5 (45.5) n (%) of patients
same,Best overall response: Unknown,"METΔex14‐mutated NSCLC; 2/3L group (cohort 4, n = 11)",1 (9.1) n (%) of patients
same,Median DOR (95% CI),"METΔex14‐mutated NSCLC; 2/3L group (cohort 4, n = 11)",NE (3.35–NE)
same,Median TTR (95% CI),"METΔex14‐mutated NSCLC; 2/3L group (cohort 4, n = 11)",NE (1.38–NE)
same,Probability estimate at 3 mo for TTR (95% CI),"METΔex14‐mutated NSCLC; 2/3L group (cohort 4, n = 11)",36.4 (15.5‐70.3)
same,"Tumor shrinkage, deep response","METΔex14‐mutated NSCLC; 2/3L group, a patient with PR",~ 80%
same,Brain response per independent neuroradiologist review,"METΔex14‐mutated NSCLC; 2/3L group, one patient with brain metastases, CT 12 weeks after starting capmatinib",partial resolution of brain lesions
same,"Tumor shrinkage, deep response",METΔex14‐mutated NSCLC; one patient in each group (1L and 2/3L),~ 80%
same,Maximum tolerated dose,[1],not identified
same,Median DOR,"MET‐amplified NSCLC [2]; 1L, cohort 5a GCN ≥ 10",8.2 months
same,ORR (BIRC),"MET‐amplified NSCLC [2]; 1L, cohort 5a GCN ≥ 10 (n = 2)",100%
same,Median DOR,"MET‐amplified NSCLC [2]; 2/3L, cohort 1a GCN ≥ 10",8.3 months
same,DCR (BIRC),MET‐amplified NSCLC [2]; [6],81.8%
same,ORR (BIRC),MET‐amplified NSCLC [2]; [6],45.5%
same,DCR (BIRC),MET‐amplified NSCLC [2]; [7],100.0%
same,ORR (BIRC),MET‐amplified NSCLC [2]; [7],0%
same,Median DOR,"MET‐amplified NSCLC [2]; 2/3L, cohort 2 GCN ≥ 4 to <6",9.7
same,DCR (BIRC),MET‐amplified NSCLC [2]; [8],50.0%
same,ORR (BIRC),MET‐amplified NSCLC [2]; [8],10%
same,DCR (BIRC),"MET‐amplified NSCLC [2]; 2/3L, cohort 3 GCN < 4 (n = 6)",66.7%
same,ORR (BIRC),"MET‐amplified NSCLC [2]; 2/3L, cohort 3 GCN < 4 (n = 6)",16.7%
same,Median DOR,"MET‐amplified NSCLC [3]; GCN ≥10, first‐line",7.5 months
same,Median DOR,"MET‐amplified NSCLC [3]; GCN ≥10, second/third‐line",8.3 months
same,Accumulation of exposure,"[4]; 400 mg twice daily, Japanese patients",1.41 fold
same,Accumulation of exposure,"[4]; 400 mg twice daily, overall study result",1.39 fold
same,"Racc AUC0–12 (accumulation ratio), geometric mean (CV%)","[4]; cycle 1, day 15 (steady state), 400 mg twice daily, fasting, Japanese patients",1.41
same,Time at which maximum concentration was reached after administration,"[4]; day 15, 400 mg twice daily, Japanese patients",≤ 1 h
same,half-life,"[4]; human, plasma, oral, 400 mg",6.54 h
same,AUC(0-t),"[4]; human, plasma, oral, 400 mg, cycle 1, day 1, 400 mg twice daily, fasting, Japanese patients",18200 ng·h/mL
same,AUC(0-t),"[4]; human, plasma, oral, 400 mg, cycle 1, day 15 (steady state), 400 mg twice daily, fasting, Japanese patients",27000 ng·h/mL
same,Cmax,"[4]; human, plasma, oral, 400 mg, Cmax, geometric mean (CV%), cycle 1, day 15 (steady state), 400 mg twice daily, fasting, Japanese patients",5920 ng/mL
